How the values were obtained:
[1] = tested on: survivin, and p21^WAF1; experiment: Immunoblot of survivin and p21WAF1 in C3-Luc cells; type: cell-based, human; settings: 24 hrs
Experimental: FIG. 2. Siomycin A inhibits endogenous FoxM1 transcriptional activity. (A) C3-Luc cells without doxycycline induction, were treated with increasing dose of Siomycin A and luciferase activity was determined as described in Example 1. (B) C3-Luc cells treated either with DMSO (control) or Siomycin A were harvested 24 hrs later and the RNA was subjected to real-time RT-PCR for quantitation of mRNA levels of FoxM1 target genes Cdc25B, Survivin, and CENPB. (C) C3-Luc cells treated as indicated were harvested 24 hrs later and used for immunoblot analysis to determine the levels of survivin, and p21^WAF1. β-actin protein levels were used as loading control.
(§1) Immunoblotting was performed as described (18-20) with antibodies specific for p21 (556431; BD Pharmingen), survivin (sc-10811; Santa Cruz), cleaved caspase-3 (9664; Cell Signaling), and β-actin (A5441; Sigma) antibodies. Immunoblot for FoxM1 was done using the previously generated rabbit antisera (2), and phospho-FoxM1 was detected using the MPM2 monoclonal antibody (Upstate Biotechnology) which recognizes the phosphorylated protein sequence phosphoserine/phosphothreonine-proline.

[2] = tested on: FoxM1; experiment: FoxM1 protein (immunoblot) and mRNA (RT-PCR) levels in C3-Luc cells; type: cell-based, human; settings: 24 hrs
Excerpt: FIG. 3. Mechanisms of FoxM1 inhibition by Siomycin A. (A) C3-Luc cells treated as indicated were harvested after 8 hrs and cell lysates were used for immunoprecipitation of FoxM1 protein. These samples were resolved on an SDS-PAGE gel and immunoblotted to determine total and phospho-FoxM1 levels. (B) C3-Luc cells treated with Siomycin A or DMSO were harvested 24 hrs later and the lysates were used to determine FoxM1 protein levels by immunoblotting. (C) RNA from C3-Luc cells treated with Siomycin A or DMSO for 24 hrs was used to determine levels of FoxM1 mRNA using real-time quantitative RT-PCR.
Cells treated with Siomycin A or DMSO (control) were harvested 24 hrs later and RNA was extracted using the TRIzol reagent (15596-026; Invitrogen). cDNA was prepared from this RNA using the Bio-Rad cDNA synthesis kit. […]
as §1

[3] = tested on: C3-Luc cells; experiment: Soft agar assay (anchorage-independent growth); type: cell-based, human; settings: 10 μM, 1 μg/mL doxycycline, 4 weeks
Experimental: The assay was done as described previously (21, 22). Briefly C3-Luc cells were plated subconfluently in six-well plates in 0.7% agarose on a 1.4% agarose bed in the presence or absence of 10 μM of Siomycin A and 1 μg/mL of doxycycline. Three times a week, the tissue-culture medium containing these agents was replaced. After 4 weeks, cell colonies that were larger than 1 mm in size were scored.

[4] = tested on: Liver cancer cell lines Huh7, Hep-3B and SK-Hep; experiment: FoxM1 and cleaved caspase-3 immunoblot in liver cancer cell lines; type: cell-based, human; settings: 10 μM, 48 hrs
Experimental: FIG. 9. […] Liver cancer cell lines Huh7, Hep-3B and SK-Hep were treated with 10 μM Siomycin A and thiostrepton, respectively, for 48 hrs, and the cell lysates were analyzed for the levels of FoxM1 and cleaved caspase-3 by immunoblotting.
as §1
First, we treated liver cancer cell lines Huh7, Hep-3B and SK-Hep that have deleted or mutant p53 with these compounds for 48 hrs, and the cell lysates were analyzed for the levels of FoxM1 and cleaved caspase-3 by immunoblotting.

[5] = tested on: NB7 and NB7-casp8 neuroblastoma cells; experiment: FoxM1 and cleaved caspase-3 immunoblot in neuroblastoma cells; type: cell-based; settings: 24 hrs
Experimental: FIG. 11. […] Cells were treated with Siomycin A, thiostrepton or DMSO, harvested 24 hrs later and the lysates were used to determine proteins levels by immunoblotting with antibodies specific for FoxM1, cleaved caspase-3 and β-actin (AS441, Sigma).

[6] = tested on: HCT116 colon cancer cells; settings: another study (ref. 27); cited from earlier work

## C=C(NC(=O)C(=C)NC(=O)c1csc(C2=N[C@@H]3c4csc(n4)[C@H]4NC(=O)c5csc(n5)[C@H]([C@](C)(O)[C@@H](C)O)NC(=O)[C@H]5CSC(=N5)/C(=C/C)NC(=O)[C@H]([C@@H](C)O)NC(=O)c5csc(n5)[C@]3(CC2)NC(=O)[C@H](C)NC(=O)C(=C)NC(=O)C(=C)NC(=O)[C@H](C(C)C)N[C@@H]2C=Cc3c([C@H](C)O)cc(nc3[C@H]2O)C(=O)O[C@@H]4C)n1)C(N)=O [Siomycin A]
[1]
  p21^WAF1 protein levels: increase in its protein levels
  protein levels of survivin: dramatically reduced
[2]
  FoxM1 mRNA levels: significantly decreased
  FoxM1 protein levels: significantly decreased
[3]
  anchorage-independent growth (number of colonies on soft agar): dramatically reduced the anchorage-independent growth to less than basal untreated value
[4]
  FoxM1 protein expression: repress FoxM1 protein expression
  apoptosis (cleaved caspase-3): induce apoptosis
[5]; NB7 and NB7 with reconstituted caspase-8
  apoptosis (cleaved caspase-3): induce apoptosis in these neuroblastoma cells independently from caspase-8
[5]; immunoblot
  FoxM1 protein expression: inhibit FoxM1 protein expression
[6]
  cell death mechanism in HCT116 cells: induced Endoplasmic reticulum stress, and lysosomal membrane permeabilization followed by cell death

— patent US8029980B2, “Identification and use of agents that modulate oncogenic transcription agent activity” (The Board of Trustees of the University of Illinois, priority 2006, dated 2011)
